ChEMBL document CHEMBL1152560, “Substituted 2-arylbenzothiazoles as kinase inhibitors: hit-to-lead optimization” (Bioorg Med Chem, 2009)

How the values were obtained:
[1] = biological target: Insulin receptor (Homo sapiens) (UniProt P06213); assay: Residual activity of INSR at 10 uM by microplate scintillation counting
[2] = biological target: T1, Serine/threonine-protein kinase Sgk3 (Homo sapiens) (UniProt Q96BR1); assay: Residual activity of SGK3 at 1 uM by microplate scintillation counting
T1 sequence (whole entry): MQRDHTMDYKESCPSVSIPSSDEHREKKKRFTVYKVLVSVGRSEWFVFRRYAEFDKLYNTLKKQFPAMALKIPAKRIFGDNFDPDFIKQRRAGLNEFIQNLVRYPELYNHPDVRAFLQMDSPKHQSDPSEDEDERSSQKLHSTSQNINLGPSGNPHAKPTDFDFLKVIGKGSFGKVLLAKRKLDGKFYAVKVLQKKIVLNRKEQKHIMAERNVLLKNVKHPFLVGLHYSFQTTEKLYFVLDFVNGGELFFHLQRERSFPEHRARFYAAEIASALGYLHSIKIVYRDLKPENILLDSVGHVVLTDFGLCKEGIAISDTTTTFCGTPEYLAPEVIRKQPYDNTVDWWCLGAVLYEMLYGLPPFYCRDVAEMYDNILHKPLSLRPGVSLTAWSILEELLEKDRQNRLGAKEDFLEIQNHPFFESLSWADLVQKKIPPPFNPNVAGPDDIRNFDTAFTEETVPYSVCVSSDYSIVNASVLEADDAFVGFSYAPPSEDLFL

[3] = biological target: Protein kinase C delta type (Homo sapiens) (UniProt Q05655); assay: Residual activity of PKCdelta at 1 uM by microplate scintillation counting
Sequence of Protein kinase C delta type (Homo sapiens) (Q05655 whole entry, looked up): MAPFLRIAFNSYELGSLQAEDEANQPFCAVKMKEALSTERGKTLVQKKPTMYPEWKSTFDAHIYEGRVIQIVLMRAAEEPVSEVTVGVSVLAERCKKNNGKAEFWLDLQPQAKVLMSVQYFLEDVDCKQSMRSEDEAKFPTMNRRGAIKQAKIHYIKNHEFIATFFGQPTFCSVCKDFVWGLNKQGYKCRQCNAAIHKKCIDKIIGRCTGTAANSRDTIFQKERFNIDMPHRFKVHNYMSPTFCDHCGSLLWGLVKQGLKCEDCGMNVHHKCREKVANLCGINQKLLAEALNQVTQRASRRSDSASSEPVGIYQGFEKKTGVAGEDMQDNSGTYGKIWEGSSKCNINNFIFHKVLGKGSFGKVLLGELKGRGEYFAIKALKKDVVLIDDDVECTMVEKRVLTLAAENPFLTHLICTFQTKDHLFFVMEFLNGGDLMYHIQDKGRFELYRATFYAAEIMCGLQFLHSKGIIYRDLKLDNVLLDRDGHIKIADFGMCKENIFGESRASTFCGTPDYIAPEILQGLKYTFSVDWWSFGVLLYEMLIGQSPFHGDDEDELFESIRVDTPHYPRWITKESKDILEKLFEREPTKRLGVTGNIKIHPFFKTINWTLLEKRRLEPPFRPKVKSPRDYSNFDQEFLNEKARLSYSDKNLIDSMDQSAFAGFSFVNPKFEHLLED

[4] = biological target: Ribosomal protein S6 kinase alpha-6 (Homo sapiens) (UniProt Q9UK32); assay: Residual activity of RPS6KA6 at 0.1 uM by microplate scintillation counting
Sequence of Ribosomal protein S6 kinase alpha-6 (Homo sapiens) (Q9UK32 whole entry): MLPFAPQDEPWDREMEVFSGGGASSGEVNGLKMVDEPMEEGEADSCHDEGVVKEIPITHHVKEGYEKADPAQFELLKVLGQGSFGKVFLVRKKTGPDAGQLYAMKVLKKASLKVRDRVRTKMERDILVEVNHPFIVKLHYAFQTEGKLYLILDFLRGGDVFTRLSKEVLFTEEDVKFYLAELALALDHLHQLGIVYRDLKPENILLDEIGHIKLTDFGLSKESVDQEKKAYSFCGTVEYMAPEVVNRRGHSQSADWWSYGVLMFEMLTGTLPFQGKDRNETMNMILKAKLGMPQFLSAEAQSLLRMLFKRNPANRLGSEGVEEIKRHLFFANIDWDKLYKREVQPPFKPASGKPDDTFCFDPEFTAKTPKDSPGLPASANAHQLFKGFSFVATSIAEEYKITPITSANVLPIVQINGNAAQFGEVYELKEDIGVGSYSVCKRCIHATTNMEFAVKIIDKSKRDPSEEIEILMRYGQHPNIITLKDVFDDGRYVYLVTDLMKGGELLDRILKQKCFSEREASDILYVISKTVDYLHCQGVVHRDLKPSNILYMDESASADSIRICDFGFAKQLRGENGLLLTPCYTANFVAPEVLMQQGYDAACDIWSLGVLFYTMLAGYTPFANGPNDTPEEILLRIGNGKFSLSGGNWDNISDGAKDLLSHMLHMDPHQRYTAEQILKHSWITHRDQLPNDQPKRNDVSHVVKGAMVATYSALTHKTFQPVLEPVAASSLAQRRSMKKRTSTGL

[5] = biological target: Serine/threonine-protein kinase Chk2 (Homo sapiens) (UniProt O96017); assay: Residual activity of CHK2 at 10 uM by microplate scintillation counting
Sequence of Serine/threonine-protein kinase Chk2 (Homo sapiens) (O96017 whole entry): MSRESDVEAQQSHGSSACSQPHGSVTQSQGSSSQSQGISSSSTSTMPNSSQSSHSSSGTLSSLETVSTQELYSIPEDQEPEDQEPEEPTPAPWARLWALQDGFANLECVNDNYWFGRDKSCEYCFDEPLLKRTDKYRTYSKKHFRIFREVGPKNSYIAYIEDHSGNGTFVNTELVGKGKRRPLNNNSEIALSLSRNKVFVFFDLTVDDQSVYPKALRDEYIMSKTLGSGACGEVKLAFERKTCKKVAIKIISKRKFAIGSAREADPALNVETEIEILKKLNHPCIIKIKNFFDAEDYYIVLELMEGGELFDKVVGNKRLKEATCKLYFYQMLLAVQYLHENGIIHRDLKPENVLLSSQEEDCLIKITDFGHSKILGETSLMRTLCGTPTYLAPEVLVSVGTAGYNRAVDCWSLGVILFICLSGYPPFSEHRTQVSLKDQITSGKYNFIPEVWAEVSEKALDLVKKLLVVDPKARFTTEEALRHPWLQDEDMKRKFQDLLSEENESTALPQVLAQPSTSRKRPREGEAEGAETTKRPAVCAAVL

[6] = biological target: T2, Tyrosine-protein kinase Tec (Homo sapiens) (UniProt P42680); assay: Residual activity of TEC at 1 uM by microplate scintillation counting
T2 sequence (whole entry): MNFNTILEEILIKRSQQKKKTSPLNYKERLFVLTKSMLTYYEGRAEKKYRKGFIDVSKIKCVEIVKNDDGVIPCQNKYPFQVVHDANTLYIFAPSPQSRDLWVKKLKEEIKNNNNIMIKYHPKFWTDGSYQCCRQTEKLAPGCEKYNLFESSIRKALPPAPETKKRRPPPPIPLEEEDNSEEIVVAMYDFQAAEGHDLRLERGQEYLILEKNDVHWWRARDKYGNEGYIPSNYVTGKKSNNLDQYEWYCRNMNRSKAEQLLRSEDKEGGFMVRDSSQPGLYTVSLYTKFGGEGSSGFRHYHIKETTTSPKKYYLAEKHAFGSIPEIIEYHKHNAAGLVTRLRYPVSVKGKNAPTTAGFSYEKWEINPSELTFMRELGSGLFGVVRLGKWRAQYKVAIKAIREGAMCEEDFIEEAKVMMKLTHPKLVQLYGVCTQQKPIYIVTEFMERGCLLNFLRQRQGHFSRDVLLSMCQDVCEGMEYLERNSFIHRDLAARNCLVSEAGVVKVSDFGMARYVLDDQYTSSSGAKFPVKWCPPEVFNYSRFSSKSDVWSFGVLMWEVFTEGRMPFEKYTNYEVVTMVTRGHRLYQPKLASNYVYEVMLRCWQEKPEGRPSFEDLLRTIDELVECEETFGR

[7] = biological target: T3, Serine/threonine-protein kinase 17A (Homo sapiens) (UniProt Q9UEE5); assay: Residual activity of STK17A at 0.1 uM by microplate scintillation counting
T3 sequence (whole entry): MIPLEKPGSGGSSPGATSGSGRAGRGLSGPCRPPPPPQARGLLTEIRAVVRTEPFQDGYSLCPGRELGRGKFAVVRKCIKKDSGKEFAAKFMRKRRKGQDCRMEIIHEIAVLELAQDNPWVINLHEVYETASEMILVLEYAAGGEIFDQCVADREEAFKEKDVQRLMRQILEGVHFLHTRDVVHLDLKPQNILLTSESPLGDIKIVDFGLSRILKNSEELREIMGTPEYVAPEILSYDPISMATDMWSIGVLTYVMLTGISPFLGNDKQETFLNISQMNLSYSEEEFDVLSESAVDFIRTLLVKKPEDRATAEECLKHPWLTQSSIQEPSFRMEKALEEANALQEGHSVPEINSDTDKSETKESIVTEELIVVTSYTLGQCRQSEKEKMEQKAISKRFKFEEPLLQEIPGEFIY

[8] = biological target: T4, Inhibitor of nuclear factor kappa-B kinase subunit beta (Homo sapiens) (UniProt O14920); assay: Residual activity of IKK-beta at 10 uM by microplate scintillation counting
T4 sequence (whole entry): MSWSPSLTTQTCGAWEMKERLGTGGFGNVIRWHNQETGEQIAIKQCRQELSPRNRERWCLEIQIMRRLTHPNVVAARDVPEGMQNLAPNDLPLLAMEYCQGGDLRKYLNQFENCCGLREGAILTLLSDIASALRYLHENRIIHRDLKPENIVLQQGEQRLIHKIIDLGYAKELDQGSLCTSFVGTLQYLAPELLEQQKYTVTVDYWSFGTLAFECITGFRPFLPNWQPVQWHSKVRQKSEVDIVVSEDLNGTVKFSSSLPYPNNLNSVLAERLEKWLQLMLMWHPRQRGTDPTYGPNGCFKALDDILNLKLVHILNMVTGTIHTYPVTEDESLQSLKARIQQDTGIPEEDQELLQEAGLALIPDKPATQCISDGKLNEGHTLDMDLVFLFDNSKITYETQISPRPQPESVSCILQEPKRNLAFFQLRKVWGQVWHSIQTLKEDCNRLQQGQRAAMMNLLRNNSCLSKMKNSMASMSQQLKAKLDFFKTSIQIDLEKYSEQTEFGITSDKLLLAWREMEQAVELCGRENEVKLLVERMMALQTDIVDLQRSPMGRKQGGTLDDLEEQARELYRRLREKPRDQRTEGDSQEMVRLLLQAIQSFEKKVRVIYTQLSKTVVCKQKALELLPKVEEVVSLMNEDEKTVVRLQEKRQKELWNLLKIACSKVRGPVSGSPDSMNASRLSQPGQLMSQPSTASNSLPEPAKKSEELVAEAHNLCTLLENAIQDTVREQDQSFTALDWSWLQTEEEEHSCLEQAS

[9] = biological target: Rho-associated protein kinase 2 (Homo sapiens) (UniProt O75116); assay: Residual activity of ROCK2 at 0.1 uM by microplate scintillation counting
Sequence of Rho-associated protein kinase 2 (Homo sapiens) (O75116 whole entry, looked up): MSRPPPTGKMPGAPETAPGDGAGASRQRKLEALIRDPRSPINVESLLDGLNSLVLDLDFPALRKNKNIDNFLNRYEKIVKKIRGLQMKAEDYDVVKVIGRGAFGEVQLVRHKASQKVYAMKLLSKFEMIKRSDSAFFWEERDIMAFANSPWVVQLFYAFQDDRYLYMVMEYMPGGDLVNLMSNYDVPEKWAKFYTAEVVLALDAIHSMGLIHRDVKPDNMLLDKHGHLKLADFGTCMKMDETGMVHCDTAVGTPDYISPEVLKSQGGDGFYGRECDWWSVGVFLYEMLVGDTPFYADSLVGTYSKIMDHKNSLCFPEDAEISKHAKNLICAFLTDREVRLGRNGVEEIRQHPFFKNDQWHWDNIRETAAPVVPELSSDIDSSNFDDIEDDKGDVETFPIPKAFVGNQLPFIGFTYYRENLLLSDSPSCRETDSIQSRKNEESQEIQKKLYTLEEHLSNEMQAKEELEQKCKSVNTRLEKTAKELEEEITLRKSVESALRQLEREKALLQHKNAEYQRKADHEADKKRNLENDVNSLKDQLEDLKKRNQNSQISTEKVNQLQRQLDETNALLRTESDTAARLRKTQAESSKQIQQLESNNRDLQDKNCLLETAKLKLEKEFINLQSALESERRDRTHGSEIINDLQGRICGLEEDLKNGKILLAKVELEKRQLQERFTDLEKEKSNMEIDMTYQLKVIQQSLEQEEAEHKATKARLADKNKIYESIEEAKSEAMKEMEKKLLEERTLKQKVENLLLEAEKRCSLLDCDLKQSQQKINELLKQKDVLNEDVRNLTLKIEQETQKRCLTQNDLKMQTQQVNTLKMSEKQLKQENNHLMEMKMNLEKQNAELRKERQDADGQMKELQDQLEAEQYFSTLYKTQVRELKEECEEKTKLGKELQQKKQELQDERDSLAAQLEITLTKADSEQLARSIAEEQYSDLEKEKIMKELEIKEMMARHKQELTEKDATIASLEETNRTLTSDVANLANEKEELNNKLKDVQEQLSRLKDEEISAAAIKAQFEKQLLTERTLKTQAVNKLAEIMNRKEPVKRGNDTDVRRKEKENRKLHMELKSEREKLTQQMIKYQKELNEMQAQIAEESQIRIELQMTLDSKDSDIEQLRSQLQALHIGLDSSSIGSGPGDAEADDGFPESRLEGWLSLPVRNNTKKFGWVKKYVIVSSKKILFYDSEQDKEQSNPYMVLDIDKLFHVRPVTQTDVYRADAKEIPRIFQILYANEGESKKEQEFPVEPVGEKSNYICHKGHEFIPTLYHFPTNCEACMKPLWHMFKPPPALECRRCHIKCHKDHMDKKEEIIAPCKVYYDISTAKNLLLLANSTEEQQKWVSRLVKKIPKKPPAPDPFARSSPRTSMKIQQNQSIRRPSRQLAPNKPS

Sequence of Insulin receptor (Homo sapiens) (P06213 28-758 limits assumed): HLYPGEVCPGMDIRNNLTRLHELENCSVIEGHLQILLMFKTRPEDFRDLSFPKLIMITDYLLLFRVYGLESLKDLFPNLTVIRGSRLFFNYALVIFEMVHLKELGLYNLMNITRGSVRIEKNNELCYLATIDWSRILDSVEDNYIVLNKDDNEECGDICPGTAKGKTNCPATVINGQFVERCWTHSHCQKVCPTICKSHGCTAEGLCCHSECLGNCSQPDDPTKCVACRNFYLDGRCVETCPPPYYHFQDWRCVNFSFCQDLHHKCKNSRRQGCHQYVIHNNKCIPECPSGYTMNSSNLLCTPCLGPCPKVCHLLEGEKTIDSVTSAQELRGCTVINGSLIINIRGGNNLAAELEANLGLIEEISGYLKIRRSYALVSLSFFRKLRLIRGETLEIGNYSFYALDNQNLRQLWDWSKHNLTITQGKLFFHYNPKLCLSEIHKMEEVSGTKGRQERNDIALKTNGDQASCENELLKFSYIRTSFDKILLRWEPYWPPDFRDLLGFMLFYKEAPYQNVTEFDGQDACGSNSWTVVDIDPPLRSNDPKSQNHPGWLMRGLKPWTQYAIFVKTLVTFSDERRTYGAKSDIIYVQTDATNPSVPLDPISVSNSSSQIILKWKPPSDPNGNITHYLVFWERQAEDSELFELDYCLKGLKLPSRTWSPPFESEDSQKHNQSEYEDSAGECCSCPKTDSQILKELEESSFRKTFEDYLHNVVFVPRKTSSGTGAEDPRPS
Sequence of Insulin receptor (Homo sapiens) (P06213 763-1382 limits assumed): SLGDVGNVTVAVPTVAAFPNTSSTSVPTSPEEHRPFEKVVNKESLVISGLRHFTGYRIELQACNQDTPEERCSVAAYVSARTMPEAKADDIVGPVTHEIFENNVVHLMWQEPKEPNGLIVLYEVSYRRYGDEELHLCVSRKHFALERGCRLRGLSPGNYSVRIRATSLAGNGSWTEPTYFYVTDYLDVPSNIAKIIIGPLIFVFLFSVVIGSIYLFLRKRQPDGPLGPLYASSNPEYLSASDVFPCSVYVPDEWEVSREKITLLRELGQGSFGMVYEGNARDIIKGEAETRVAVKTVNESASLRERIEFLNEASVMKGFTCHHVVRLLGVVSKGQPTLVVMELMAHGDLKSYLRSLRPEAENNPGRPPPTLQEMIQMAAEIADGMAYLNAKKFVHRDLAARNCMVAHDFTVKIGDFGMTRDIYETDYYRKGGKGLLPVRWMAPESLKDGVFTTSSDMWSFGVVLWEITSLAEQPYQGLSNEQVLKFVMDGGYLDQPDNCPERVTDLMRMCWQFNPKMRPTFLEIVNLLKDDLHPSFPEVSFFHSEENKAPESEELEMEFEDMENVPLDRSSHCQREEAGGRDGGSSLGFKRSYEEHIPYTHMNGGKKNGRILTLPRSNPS

| residual activity [1] [%] | residual activity [2] [%] | residual activity [3] [%] | residual activity [4] [%] | residual activity [5] [%] | residual activity [6] [%] | residual activity [7] [%] | residual activity [8] [%] | residual activity [9] [%] | SMILES |
| --- | --- | --- | --- | --- | --- | --- | --- | --- | --- |
| 59 | 110 | 93 | 92 | 17 | 93 | 66 | 135 | 119 | COc1cc2c(Oc3ccc(-c4nc5ccccc5s4)cc3)ncnc2cc1OCCCN1CCCC1 |
| 33 | 91 | 103 | 96 | 11 | 96 | 66 | 109 | 98 | COc1cc2c(Oc3ccc(-c4nc5ccccc5s4)cc3)ncnc2cc1OCCCN1CCN(C)CC1 |
| 29 | 94 | 94 | 95 | 9 | 90 | 87 | 116 | 82 | COc1cc2c(Oc3ccc(-c4nc5ccccc5s4)cc3F)ncnc2cc1OCCCN1CCN(C)CC1 |
